Reference: patent US5736556A, “Tropane-2-aldoxime derivatives as nevro transmitter reuptake inhibitors” (NeuroSearch A/S, priority 1994, dated 1998)
pIC50: −log10 of the molar value. Where a name gives a salt, the structure may show the parent alone. Read-outs that look alike come from different tables or passages of the source.

Assays:
dopamine transporter [1] = target: T1, dopamine transporter (Rattus norvegicus, UniProt P23977); assay: In vitro inhibition of ^3 H-WIN 35428 binding (corpus striatum); design: species or system rat (male Wistar)
T1 construct: Corpus striatum from male Wistar rats (150-200 g) is homogenized; from tissue; host or cells: corpus striatum of male Wistar rats
From the text: The compounds of the present invention have been tested for their ability to bind to the dopamine transporter in the following tests for in vitro and in vivo inhibition of ^3 H-WIN 35428.
In vitro inhibition of ^3 H-WIN 35428 binding
Dopamine transporters/uptake sites on nerve terminals presumably function to terminate neuronal signaling by removing dopamine from the synaptic cleft. The activity or presence of the dopamine transporter integral protein can be measured in vitro with synaptosomal uptake of ^3 H-dopamine or membrane binding assays with ^3 H-ligands known to bind to the transporter.
Numerous ligands of several structural types have been reported to bind at the dopamine uptake site, but it remains questionable whether their binding sites are identical to that of cocaine.
Tissue preparation: Preparations are performed at 0°-4° C. unless otherwise indicated. Corpus striatum from male Wistar rats (150-200 g) is homogenized for 5-10 sec in 10 ml NaH2 PO4 (50 mM, pH 7.4) using an Ultra-Turrax homogenizer. The suspension is centrifuged at 27,000×g for 15 min. The supernatant is discarded and the pellet is resuspended in 50 mM NaH2 PO4, pH 7.4 (1000 ml per g of original tissue) and used for binding assays.
Assay: Aliquots of 0.5 ml tissue are added to […] of ^3 H-WIN 35428 (1 nM, final concentration), mixed and incubated for 60 min at 2° C. Non-specific binding is determined using cocaine ([…], final concentration). After incubation the samples are added 5 ml of ice-cold buffer and poured directly onto Whatman GF/C glass fibre filters under suction and immediately washed with 5 ml ice-cold buffer. The amount of radioactivity on the filters is determined by conventional liquid scintillation counting. Specific binding is total binding minus non-specific binding.
25-75% inhibition of specific binding must be obtained, before calculation of an IC50. The test value is given as IC50 (the concentration (μM) of the test substance which inhibits the specific binding of ^3 H-WIN 35428 by 50%).

dopamine transporter [2] = target: T2, dopamine transporter (Mus musculus, UniProt Q61327); assay: In vivo inhibition of ^3 H-WIN 35428 binding (striatum); design: from tissue; host or cells: striatum of living female NMRI mice; species or system mice (female NMRI); conditions: ip, mice, inhibition of specific ^3 H-WIN 35428 binding in striatum
Description: All test substances used are solutions or suspensions prepared in 10% TWEEN 80. Groups of three female NMRI mice (25 g) are injected i.p. with the test substance. […] Tissues are weighed and dissolved for 36 h with 1 ml 2% sodium-laurylsulfat. The solubilized tissue is then added 2 ml of scintillation cocktail, and the amount of radioactivity per mg of tissue is counted by conventional liquid scintillation counting. Groups of untreated mice serves as controls.
The ED50 value is determined from dose response curves.
ED50 =(administered dose, mg/kg)×1/(C0 /Cx -1), where C0 is specific binding in controls and Cx is the specific binding in mice treated with test substance.

[3] = test system: immobility time of mice suspended by the tail; assay: Tail Suspension; format: in vivo, mice (female NMRI); conditions: Mus musculus, 0.5 h, oral, 30 min before test, dose reducing the immobility to 100 sec
Description: A decrease in the immobility time by mice suspended in their tail is seen after systemic administration of central stimulants and by antidepressants (Steru, L., Chermat, R., Thierry, B. & Simon, P. (1985) The tail suspension test: A new method for screening antidepressants in mice. Psychopharmacology 85:367-370.).
Female NMRI mice (20-25 g) habituated to the room (12 hours light/dark) for at least 16 hours and housed 25 per cage are used. The mice are suspended by the tail with adhesive tape to a rod 30 cm above the lab. bench 30 min after an oral administation of vehicle or drug. For the next 6 min the accumulated duration of immobility defined as no movements by the body or extremities (however head movements are not defined as movements) are noted, Six mice per dose are used.
Saline or vehicle treated mice have immobility time scores between 160-180 sec in average. An ED50 -value is calculated by graphical interpolation from at least 3 doses as the dose reducing the immobility to 100 sec.

dopamine transporter [4] = target: T2, dopamine transporter; conditions: cited from earlier work
[5] = rat corpus striatum, ^3 H-WIN 35428 1 nM, 60 min at 2° C., read-out: in vitro IC50

T1 sequence (P23977 whole entry): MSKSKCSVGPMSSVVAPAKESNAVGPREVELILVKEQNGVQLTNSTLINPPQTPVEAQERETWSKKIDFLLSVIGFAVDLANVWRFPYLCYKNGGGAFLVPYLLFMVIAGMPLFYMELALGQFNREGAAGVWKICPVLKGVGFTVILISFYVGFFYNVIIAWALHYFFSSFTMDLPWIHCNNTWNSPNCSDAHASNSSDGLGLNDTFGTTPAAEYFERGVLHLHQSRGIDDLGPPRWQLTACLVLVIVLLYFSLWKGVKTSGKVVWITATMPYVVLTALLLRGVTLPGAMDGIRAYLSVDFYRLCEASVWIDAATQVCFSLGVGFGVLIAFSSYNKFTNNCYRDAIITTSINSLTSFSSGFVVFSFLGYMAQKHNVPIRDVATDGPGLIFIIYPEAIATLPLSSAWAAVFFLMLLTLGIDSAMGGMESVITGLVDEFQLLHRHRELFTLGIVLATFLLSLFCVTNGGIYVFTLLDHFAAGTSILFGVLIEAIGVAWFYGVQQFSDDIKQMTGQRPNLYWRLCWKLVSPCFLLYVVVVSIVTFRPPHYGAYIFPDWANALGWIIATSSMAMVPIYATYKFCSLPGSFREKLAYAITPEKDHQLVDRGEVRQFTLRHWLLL
T2 sequence (Q61327 whole entry): as the sequence (P23977 whole entry) above, with S21P, A57V, A194S, H600R, L619V counted along it

| Structure (SMILES) | pIC50 (dopamine transporter [1]; [5]) | ED50 (dopamine transporter [2]) | ED50 [3] | also measured |
| --- | --- | --- | --- | --- |
| CC(C)CON=C[C@@H]1[C@@H](c2ccc(Cl)c(Cl)c2)C[C@@H]2CC[C@H]1N2C [(1R,2R,3S)-3-(3,4-Dichlorophenyl)tropane-2-O-(2-methylpropyl)-aldoxime hydrochloride] | 7.25 | – | – | – |
| C=CCON=C[C@@H]1[C@@H](c2ccc(Cl)c(Cl)c2)C[C@@H]2CC[C@H]1N2C [(1R,2R,3S)-3-(3,4-Dichlorophenyl)tropane-2-O-(2-propenyl)-aldoxime hydrochloride] | 7.66 | – | – | – |
| C#CCON=C[C@@H]1[C@@H](c2ccc(Cl)c(Cl)c2)C[C@@H]2CC[C@H]1N2C [(1R,2R,3S)-3-(3,4-Dichlorophenyl)tropane-2-O-(2-propynyl)-aldoxime hydrochloride] | 7.72 | – | – | – |
| CN1[C@H]2CC[C@@H]1[C@H](C=NOCC1CC1)[C@@H](c1ccc(Cl)c(Cl)c1)C2 [(1R,2R,3S)-3-(3,4-Dichlorophenyl)tropane-2-O-cyclopropylmethyl-aldoxime hydrochloride] | 7.70 | – | – | – |
| CCOC(=O)CON=C[C@@H]1[C@@H](c2ccc(Cl)c(Cl)c2)C[C@@H]2CC[C@H]1N2C [(1R,2R,3S)-3-(3,4-Dichlorophenyl)tropane-2-O-ethoxycarbonylmethyl-aldoxime,hydrochloride] | 7.62 | > 10 mg/kg | – | – |
| CN1[C@H]2CC[C@@H]1[C@H](C=NO)[C@@H](c1ccc(Cl)c(Cl)c1)C2 [(1R,2R,3S)-3-(3,4-Dichlorophenyl)tropane-2-aldoxime] | – | 3.8 mg/kg | 0.41 mg/kg | pIC50 (dopamine transporter [1]): 8.47 |
| CC(C)CON=C[C@@H]1[C@@H](c2ccc(Cl)c(Cl)c2)C[C@@H]2CC[C@H]1N2C [(1R,2R,3S)-3-(3,4-dichlorophenyl)-tropane-2-O-(2-methylpropyl)-aldoxime] | – | – | 0.8 mg/kg | – |
| C=CCON=C[C@@H]1[C@@H](c2ccc(Cl)c(Cl)c2)C[C@@H]2CC[C@H]1N2C [(1R,2R,3S)-3-(3,4-dichlorophenyl)-tropane-2-O-(2-propenyl)-aldoxime] | – | – | 0.23 mg/kg | – |
| C#CCON=C[C@@H]1[C@@H](c2ccc(Cl)c(Cl)c2)C[C@@H]2CC[C@H]1N2C [(1R,2R,3S)-3-(3,4-dichlorophenyl)-tropane-2-O-(2-propynyl)-aldoxime] | – | – | 0.04 mg/kg | – |
| CN1[C@H]2CC[C@@H]1[C@H](C=NOCc1ccccc1)[C@@H](c1ccc(Cl)c(Cl)c1)C2 [(1R,2R,3S)-3-(3,4-dichlorophenyl)-tropane-2-O-benzyl-aldoxime, HCl] | 7.12 | > 10 mg/kg | 2 mg/kg | – |
| CN1[C@H]2CC[C@@H]1[C@H](C=NOCC1CC1)[C@@H](c1ccc(Cl)c(Cl)c1)C2 [(1R,2R,3S)-3-(3,4-dichlorophenyl)-tropane-2-O-cyclopropylmethyl-aldoxime] | – | – | 0.7 mg/kg | – |
| COC(=O)CON=C[C@@H]1[C@@H](c2ccc(Cl)c(Cl)c2)C[C@@H]2CC[C@H]1N2C [(1R,2R,3S)-3-(3,4-dichlorophenyl)tropane-2-O-methoxycarbonylmethyl-aldoxime] | – | – | 0.25 mg/kg | – |
| CON=C[C@@H]1[C@@H](c2ccc(Cl)cc2)C[C@@H]2CC[C@H]1N2C [(1R,2R,3S)-3-(4-chlorophenyl)tropane-2-O-methylaldoxime hydrochloride] | 7.32 | 1 mg/kg | 0.43 mg/kg | – |
| CN1[C@H]2CC[C@@H]1[C@H](C=NO)[C@@H](c1ccc(Cl)cc1)C2 [(1R,2R,3S)-3-(4-chlorophenyl)tropane-2-aldoxime] | – | 1.05 mg/kg | 0.19 mg/kg | pIC50 (dopamine transporter [1]): 7.89 |
| CON=C[C@@H]1[C@@H](c2ccc(C)cc2)C[C@@H]2CC[C@H]1N2C [(1R,2R,3S)-3-(4-methylphenyl)tropane-2-O-methyl-aldoxime hydrochloride] | 7.38 | – | – | – |
| CN1[C@H]2CC[C@@H]1[C@@H](C=NOCc1ccccc1)[C@@H](c1ccc(Cl)c(Cl)c1)C2 [(1R,2S,3S)-3-(3,4-dichlorophenyl)tropane-2-O-benzyl-aldoxime, hydrochloride] | – | – | 0.94 mg/kg | – |
| CON=C[C@H]1[C@@H](c2ccc(Cl)c(Cl)c2)C[C@@H]2CC[C@H]1N2C [(1R,2S,3S)-3-(3,4-dichlorophenyl)tropane-2-O-methyl-aldoxime] | 8.74 | 0.37 mg/kg | 0.4 mg/kg | – |
| CN1[C@H]2CC[C@@H]1[C@@H](C=NO)[C@@H](c1ccc(Cl)c(Cl)c1)C2 [(1R,2S,3S)-3-(3,4-dichlorophenyl)tropane-2-aldoxime] | – | 0.56 mg/kg | 0.27 mg/kg | pIC50 (dopamine transporter [1]): 8.70 |
| Fc1ccc(C(OCCN2CCN(CCCc3ccccc3)CC2)c2ccc(F)cc2)cc1 [GBR 12909] | – | – | – | prevention of specific binding of ^3 H-WIN 35428 in vivo (dopamine transporter [4]): partly or completely prevented |
